Data reported in patent US20020147145A1, “Materials and methods relating to the degradation of Cdc25A in response to DNA damage” (priority 2000, published 2002).
“Also recorded” adds a separate entry of the source. Non-standard residues stand in square brackets, D forms with d. Residues, ends and D or L forms follow the SMILES beside them. Nle = CCCC[C@H](N)C(=O)O

Columns and labels:
Cdc25A [1] = experiment: Cdc25A phosphatase activity assay (activation of cyclin B1/Cdc2) on lysates of UV-irradiated U-2-OS cells; format: cell-based, human; set-up: Cdc25A-associated phosphatase activity after UV: dose or concentration left out as unconfirmed
Cdc25A [2] = experiment: Cdc25A protein level and turnover by immunoblotting in UV-irradiated U-2-OS cells; format: cell-based, human; set-up: UV-induced degradation of the endogenous Cdc25A protein: dose or concentration left out as unconfirmed
Chk1 = Chk1 (Homo sapiens, UniProt O14757); conditions: UCN-01 1 μM added into the kinase reaction; Chk1 immunoprecipitated from U-2-OS lysates
Chain of Chk1 (O14757 whole entry): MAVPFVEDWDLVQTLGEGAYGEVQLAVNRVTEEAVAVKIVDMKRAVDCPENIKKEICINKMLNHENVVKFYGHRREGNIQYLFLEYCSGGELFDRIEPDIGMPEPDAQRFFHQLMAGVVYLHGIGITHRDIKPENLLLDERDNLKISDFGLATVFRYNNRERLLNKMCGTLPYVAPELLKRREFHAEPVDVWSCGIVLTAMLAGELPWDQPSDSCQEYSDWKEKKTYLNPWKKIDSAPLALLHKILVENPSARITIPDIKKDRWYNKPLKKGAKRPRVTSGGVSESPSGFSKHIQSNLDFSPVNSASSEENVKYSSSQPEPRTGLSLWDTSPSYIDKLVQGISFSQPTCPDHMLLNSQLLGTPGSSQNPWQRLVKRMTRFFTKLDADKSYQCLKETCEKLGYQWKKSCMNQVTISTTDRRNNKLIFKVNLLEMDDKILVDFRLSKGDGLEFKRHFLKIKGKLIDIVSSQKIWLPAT
Method: (§1) FIG. 3. […] Asynchronous SAOS-2 cells were irradiated with UV (15 J/m^2) or left untreated. Cells were harvested 2 hours later and lysates were subjected to immunoblotting and phosphatase activity measurements. […] After an additional 2 hours, cells were lysed and analyzed for levels and complexes of HACdc25A and Chk1 as indicated. […] Chk1 was immunoprecipitated from lysates of U-2-OS cells treated as in (B), and its activity determined in an in vitro kinase assay in the presence or absence of the Chk1 inhibitor, UCN-01 (1 μM), using purified GST-Cdc25A as a substrate.
(§2) Immunochemical techniques: Antibodies used in this study: Mouse monoclonal antibodies against human Cdc25A (DCS-122, DCS-124) and F-6 (Santa Cruz), Cdc25B (DCS-162, DCS-164) and Cdc25C (DCS-193) full length proteins fused to GST were generated by means of established hybridoma technology as described. Rabbit polyclonal antobody against Cdc25C (SC-327) were purchased from Santa Cruz. Antiserum against cdk2 Tyr15 was obtained from Calbiochem.

Chk1/Cdc25A = Chk1/Cdc25A association (co-immunoprecipitation) in UV-irradiated U-2-OS cells transfected with HA-Cdc25A; format: cell-based, human; conditions: caffeine 10 mM, 1 hour preincubation before UV (15 J/m^2), lysed 2 hours later
Method: as §1, §2

[3] = test system: tyrosine phosphatases including Cdc25
Description: as §2

[4] = UCN-01 at the time of UV irradiation (15 J/m^2), U-2-OS

CCCC[C@@H](C=O)NC(=O)[C@H](CC(C)C)NC(=O)[C@H](CC(C)C)NC(C)=O [LLnL] (Ac-Leu-Leu-[Nle]-aldehyde)
UV-induced reduction of Cdc25A phosphatase activity (Cdc25A [1]; LLnL 25 μg/ml added immediately after UV (15 J/m^2), endogenous and ectopic Cdc25A, 1 hour after UV): entirely prevented | UV-induced reduction of Cdc25A protein level (Cdc25A [2]; LLnL 25 μg/ml added immediately after UV (15 J/m^2), U-2-OS (endogenous) and U-2-OS/B3C4 (ectopic Cdc25A), lysates 1 hour after UV): entirely prevented

CN[C@@H]1C[C@H]2O[C@@](C)([C@@H]1OC)n1c3ccccc3c3c4c(c5c6ccccc6n2c5c31)C(=O)N[C@@H]4O [UCN-01]
basal and UV-induced Chk1 kinase activities towards GST-Cdc25A (Chk1): completely inhibited | Cdc25A-associated phosphatase activity after UV (Cdc25A [1]; [4]): allowed maintenance of high | UV-induced degradation of the endogenous Cdc25A protein (Cdc25A [2]; [4]): completely abolished; also recorded: prevented

Cn1c(=O)c2c(ncn2C)n(C)c1=O [caffeine]
half-life of the Cdc25A protein after UV (Cdc25A [2]; caffeine prior to UV irradiation, compared to non-irradiated cells): restored | UV-induced increase in Chk1/Cdc25A association (Chk1/Cdc25A): quantitatively prevented

sodium vanadate
ability of mock-treated cell lysates to dephosphorylate and superactivate cyclin E/cdk2 [3]: completely prevented
